Laboratory results taken from paper PMC7617978, “Anti-trypanosomal quinazolines targeting lysyl-tRNA synthetases show partial efficacy in a mouse model of acute Chagas disease” (Science translational medicine, 2025).
“And” between values parts separate entries of the source, which are not always exact repeats. Equal values may be shown once. Read-outs that look alike come from different tables or passages of the source.

Columns and labels:
[1] = target: Trypanosoma cruzi lysyl-tRNA synthetase 1 (TcKRS1), recombinant, residues 54-580 (Trypanosoma cruzi); experiment: SEC; size exclusion chromatography as the last step of purification of recombinant TcKRS1 (tag cleaved); running buffer not stated
[2] = test system: T. cruzi CL Brener strain; experiment: Bioluminescent mouse model of acute T. cruzi infection; format: in vivo, BALB/c mice; conditions: 100 mg/kg QD oral, 5 days, in words
Description: Female BALB/c mice (aged 6-7 weeks), purchased from Charles River (UK), were maintained under specific pathogen-free conditions in individually ventilated cages, with a 12 h light/dark cycle. They had access to food and water ad libitum. Mice were infected by intraperitoneal injection (i.p) of 1x10^3 bloodstream trypomastigotes derived from CB17 SCID mouse blood.
Compounds were prepared in 5% (v/v) dimethyl sulfoxide /95% HPMC suspension vehicle (0.5% (w/v) hydroxypropyl methylcellulose, 0.5% (v/v) benzyl alcohol, 0.4% (v/v) Tween 80 in Milli-Q water). Mice were treated as outlined in Fig. 5, with compounds administered by oral gavage. At different days after infection, mice were injected with d-luciferin (150 mg/kg) i.p., anaesthetized using 2.5% (v/v) gaseous isoflurane and imaged using an IVIS Spectrum (Revvity, Hopkinton, MA, USA) 5-10 min later. To estimate parasite burden, mice ventral and dorsal regions of interest were drawn using Living Image 4.7.3 to quantify bioluminescence expressed as total flux (photons/second; p/s). Regions of interest data from infected and not-infected mice were used as controls. Exposure times varied between 30 sec and 5 min, depending on the signal intensity.

[3] = test system: T. cruzi (Sylvio X10/7A1 strain) epimastigote; experiment: microbe, parasite or virus in culture; format: cell-based; conditions: epimastigote; for EC50: read-out: EC50
T. b. brucei BSF = experiment: Drug sensitivity assay, T. b. brucei bloodstream forms; format: cell-based; conditions: BSF; for EC50: read-out: EC50
[4] = test system: L. donovani (LdBOB) promastigote; experiment: Drug sensitivity assay, L. donovani promastigotes; format: cell-based; conditions: promastigote; for EC50: read-out: EC50

Trypanosoma cruzi lysyl-tRNA synthetase 1 (TcKRS1), recombinant, residues 54-580 (enzyme)
stoichiometry N [1]: 2

O=C(Cn1ccnc1[N+](=O)[O-])NCc1ccccc1 [benznidazole, reference compound]
parasite burden after treatment [2]: reduced close to the limit of detection

O=C(NCC1(O)CCC(F)(F)CC1)c1cc(=O)c2cc(F)ccc2o1 [DDD01510706, reference compound]
Fold-shift (relative to WT) ([3]; KRS1 OE): 9 fold | EC50 ([3]; KRS1 OE): 13 ± 0.4 µM | Fold-shift (relative to WT) ([3]; KRS1 S319L): 25 fold | EC50 ([3]; KRS1 S319L): 36 ± 4 µM | EC50 ([3]; WT): 1.4 ± 0.04 µM | Fold-shift (relative to WT) (T. b. brucei BSF; KRS1 OE): 5 fold and ~ 5 fold | EC50 (T. b. brucei BSF; KRS1 OE): 3 ± 0.1 µM | EC50 (T. b. brucei BSF; KRS1 S323L): 33 ± 1 µM | Fold-shift (relative to WT) (T. b. brucei BSF; KRS1 serine-to-leucine mutant (S323L; printed S319L in Table S1)): 53 fold | EC50 (T. b. brucei BSF; WT): 0.6 ± 0.01 µM | Fold-shift (relative to WT) ([4]; KRS1 OE): 11 fold | EC50 ([4]; KRS1 OE): 8 ± 0.5 µM | Fold-shift (relative to WT) ([4]; KRS1 S324L): 12 fold | EC50 ([4]; WT): 0.7 ± 0.01 µM
